Reference: patent US10647680B2, “Urea compound, preparation method therefor and medical use thereof” (Ancureall Pharmaceutical (Shanghai) Co., Ltd., priority 2016, dated 2020)
Counter-ions that a name gives are not always drawn. Like-named read-outs stand apart in the source and are kept apart here. Each block holds one molecule with its values, some of them ahead of it.

What was measured:
[1] = Stability test: intense light test (4500LX); type: physicochemical; settings: 4500LX±500LX light for 10 days, HPLC
Procedure: The test samples were placed into an integrated drug stability test chamber (YSEI) in an exposed way under 4500LX±500LX light for 10 days. Samples were taken on the 5th and 10th days and tested according to the drug stability test indices.
(§1) An appropriate amount of test samples was taken and dissolved in acetonitrile-water (1:1), and quantitatively diluted to a solution of about 0.3 mg/ml. 20 ul of solution was injected into a liquid chromatograph (Agilent 1260 Infinity), the chromatogram was then recorded and calculated according to the percentage area method. The mobile phase was a phosphate buffer and acetonitrile aqueous solution, and then a gradient elution was carried out.

[2] = Stability test: high temperature test (60° C.); type: physicochemical; settings: exposed at 60° C. for 10 days, HPLC
Procedure: The test samples were placed into an integrated drug stability test chamber (YSEI) in an exposed way at 60° C. for 10 days. Samples were taken on the 5th and 10th days and tested according to the drug stability test indices.
as §1

[3] = Stability test: high humidity test (90%); type: physicochemical; settings: 25° C., relative humidity 90%±5%, 10 days, HPLC
Procedure: The test samples were placed into an integrated drug stability test chamber (YSEI) in an exposed way at 25° C. and relative humidity of 90%±5% for 10 days. Samples were taken on the 5th and 10th days and tested according to the drug stability test indices.
as §1

Solubility test = type: physicochemical; settings: in water at 25° C.±2° C.
Procedure: The fine powder of the test sample was weighed into an appropriate amount of water at 25° C.±2° C. and shaken vigorously for 30 seconds every 5 minutes so that it was fully dissolved within 30 minutes. If no visible solute particles were observed, it was considered completely dissolved. “Readily soluble” means that 1 g of the test sample could be dissolved in 1-10 ml of water; and “soluble” means that 1 g of the test sample could be dissolved in 10-30 ml of water; “slightly soluble” means that 1 g of the test sample could be dissolved in 30-100 ml of water; and “sparingly soluble” means that 1 g of the test sample could be dissolved in 100-1,000 ml of water; “nearly insoluble or insoluble” means that 1 g of the test sample could not be completely dissolved in 10,000 ml of water.

rat plasma protein = assay: Binding rate to plasma protein of rats (dialysis method); type: in vitro ADME; settings: dialysis, 4 h, 37° C.; test substance 2 uM, positive control 1 uM
Procedure: The binding rate of compound 77 of the present invention to plasma protein at a rat plasma concentration of 2 uM was evaluated by dialysis method.
Procedure: The DMSO stock solution of compound 77 (10 mM) or the positive control propranolol (USP) was added to 500 uL of blank plasma. The final concentration of test substance in the plasma was 2 uM, and the final concentration of the positive control was 1 uM, in triplicate. 300 uL of prepared plasma samples was added to the plasma chamber, and 500 uL of dialysis buffer was added to the buffer chamber (phosphate buffer solution PBS contained 100 mM sodium phosphate and 150 mM sodium chloride, PH 7.2), sealed, and incubated for 4 h while shaking at 100 rpm, 37° C. After incubation, 50 uL sample was taken from the plasma chamber and buffer chamber, and 50 uL of PBS was added to plasma chamber samples, and 50 uL of blank plasma was added to the buffer chamber samples. Immediately, 3-fold methanol solution containing internal standard was added, to precipitate plasma protein. After centrifugation, the supernatant was taken for LC/MS/MS analysis. The plasma protein binding rate was calculated according to the following formula: % free state=(peak area ratio in the buffer chamber/the peak area ratio in the plasma chamber)×%, % binding state=100%−% free state.

[4] = tested on: K562 (FLT3 negative expression, positive expression of BCR-ABL fusion protein); assay: In vitro growth inhibition (GI50), K562; type: cell-based; settings: Homo sapiens, Cell lines of leukemia, read-out: GI 50 K562 BCR-ABL
[5] = tested on: KG-1 (expressing FGFR1OP2-FGFR1 fusion protein); assay: In vitro growth inhibition (GI50), KG-1; type: cell-based; settings: Homo sapiens; Cell lines of leukemia; read-out: GI 50 KG-1 FGFR1OP 2-FGFR1
HL-60 (FLT3 wild type) = assay: In vitro growth inhibition (GI50), HL-60; type: cell-based; settings: Homo sapiens, Cell lines of leukemia, read-out: GI 50 HL60 FLT3 (WT)
Outline: (§2)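 After 3–5 days of treatment (top concentration 5,000 nM, serially diluted 2- or 10-fold to 0.01 nM, solvent ≤1%), viability was read by CCK8 at OD450. Growth rate was normalised to the time-zero and solvent-control wells, and GI50 was derived from the curve. Cultures in RPMI1640 + 10% FBS.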

U937 (FLT3 wild-type) = assay: In vitro growth inhibition (GI50), U937; type: cell-based; settings: Homo sapiens, U-937; Cell lines of leukemia; read-out: GI 50 U937 FLT 3(WT)
[6] = tested on: OCI-AML3 (NPMc+ mutant type); assay: In vitro growth inhibition (GI50), OCI-AML3; type: cell-based; settings: Homo sapiens, OCI-AML-3; Cell lines of leukemia; read-out: GI 50 OCI- AML3 NPMc+
[7] = tested on: RAMOS (positive expression of Brutons tyrosine protein kinase); assay: In vitro growth inhibition (GI50), RAMOS; type: cell-based; settings: Homo sapiens, Cell lines of leukemia, read-out: GI 50 Ramos BTK
[8] = tested on: MOLM-13 (FLT3 ITD+/− mutant type); assay: In vitro growth inhibition (GI50), MOLM-13; type: cell-based, human; settings: Homo sapiens, MOLM-13; Cell lines of leukemia; read-out: GI 50 MOLM-13 FLT3 (ITD+/−)
[9] = tested on: MV4-11 (FLT3 ITD+/+ mutant type); assay: In vitro growth inhibition (GI50), MV4-11; type: cell-based, human; settings: Homo sapiens, MV4-11; Cell lines of leukemia; read-out: GI 50 MV4-11 FLT3 (ITD +/+)
[10] = tested on: Kasumi-1 (c-Kit N822K mutant type); assay: In vitro growth inhibition (GI50), Kasumi-1; type: cell-based; settings: Homo sapiens, Cell lines of leukemia, read-out: GI 50 Kasumi-1 Kit (N822K)
Outline: as §2

RS4; 11 (FLT3 wild type) = assay: In vitro growth inhibition (GI50), RS4; 11; type: cell-based, human; settings: Homo sapiens, RS4-11; Cell lines of leukemia; read-out: GI 50 RS4: 11 FLT3 (WT)
P-gp = assay: Bidirectional transmembrane transport and P-gp efflux in Caco-2 monolayer cell model; type: in vitro ADME; settings: human, Caco-2, pH 7.4; Concentration 10, Inhibitor − (without P-gp inhibitor GF120918); read-out: Efflux Ratio Papp (B→A)/Papp (A→B)
Procedure: (§3) The Caco-2 cell transport experiment was performed using compound 77 of the present invention as a representative example.
(§4) Main procedure: Caco-2 cells (ATCC, HTB-37) were cultured in high-glucose DMEM culture medium (Hyclone) containing 10% fetal calf serum (GIBCO) and penicillin-streptomycin (100 units/mL each) (Sigma). Cells were cultured at 37° C. in an incubator containing 5% CO2. In the transport experiment, Caco-2 cells were inoculated on a filter of a 12-well Transwell plate at a density of 2×10^5 cells/well (Coming Costar, catalog #3401, 1.12 cm^2, 0.4 um of pore size). After inoculation, the Caco-2 cells would form intact cell monolayers after 21 days, including P-gp efflux transporter expression and transepithelial cell resistance (TEER) formation. During the period, the culture medium was replaced once every other day. The volume of culture medium at the transwell membrane Apical Side (A) and Basolateral Side (B) were 0.5 mL and 1.5 mL, respectively. Before the transport experiment (day 21), the preheated HBSS buffer (137 mM NaCl, 4.17 mM NaHCO3, 0.34 mM Na2HPO4, 5.37 mM KCl, 0.44 mM KH2PO4, 1.26 mM CaCl2, 0.49 mM MgCl2, 0.41 mM MgSO4, 5.55 Mm D-Glucose, 10 mM HEPES, pH 7.4) was used firstly to wash Caco-2 cell monolayers for three times, and placed to at 37° C. for incubation for 30 minutes, then TEER values were determined using a cell resistometer (Millicell-ERS2) to confirm the integrity and compactness of the cell monolayers. When the HBSS buffer solution on the transmembrane A-side or B-side was replaced with the test compound, the transport experiment was started.
(§5) Finally, after incubation at 37° C. for 2 hours, the transport experiment was terminated and 50 uL of sample solution was taken from both sides of the Transwell filter membrane separately and added to 100 μL of acetonitrile comprising internal standard compound and mixed well, then centrifuged at 13000 rpm, 4° C. for 10 min, and finally 10 μL (or a specific volume) of supernatant was used for LC-MS/MS sample analysis.
(§6) For each compound, transport experiments in the A-B and B-A directions had three replicates, i.e. n=3.
(§7) LC-MS/MS Sample Analysis: The high performance liquid chromatography (HPLC) system used in this research consisted of two pumps (Shimadzu LC-20AD) and an autosampler (Shimadzu SIL-20AC). The HPLC system was connected in series with an API 4000 triple quadrupole mass spectrometer (Applied Biosystems). The API 4000 triple quadrupole mass spectrometer was equipped with an electrospray ionization (ESI) source. Ultrapurified nitrogen was used as curtain gas, GAS1, GAS2, and collision gas, at flow rates of 20 L/h, 55 L/h, 65 L/h, and 6 L/hr, respectively. The atomization temperature of the ion source was set to 500° C. Data was collected using the software Analyst 1.5.
(§8) Data analysis: The apparent permeability coefficient (Papp) can be calculated by the rate at which a compound permeates the monolayer of Caco-2 cells. Its value is related to the absorption of the compound in vivo. After concentrations at A side and B side were determined by LC-MS/MS, the Papp value in the A-B or B-A direction was calculated according to the following formula: Papp(A→B) or Papp(B→A)=(dQ/dt)/(A*C0)=(C2h*V)/(t*π2*C0)
(§9) In the above formula, dQ/dt is the permeation rate, i.e. the amount of compound that permeated in the dt time, C0 is the initial concentration of drug on the administration side, and A is the surface area of the cell monolayer, i.e. the membrane area.
(§10) After obtaining the Papp (A→B) and Papp (B→A) values of the compound, the Efflux Ratio (ER) of the compound could be calculated by the following formula: Efflux Ratio(ER)=Papp(B−A)/Papp(A−B).
(§11) When the ratio of efflux was >2, the compound could be considered as the substrate of the efflux transporter.

[11] = as above; type: in vitro ADME; settings: human
Procedure: as §3, §4, §5, §6, §7, §8, §9, §10, §11

Lighting (4500 LX) [1]: stable | High temperature (60° C.) [2]: stable | High Humidity (90%) [3]: stable
Compound: COc1ccc2c(c1)ncn2-c1ccc(NC(=O)Nc2cc(C(C)(C)C)n[nH]2)cc1 [Compound 71 Mesylate, 1-(5-tert-butyl-2H-pyrazol-3-yl)-3-[4-(5-methoxyl-benzimidazol-1-yl)-phenyl]-urea]
Solubility (Solubility test; listed as 71 Mesylate): soluble (“soluble” means that 1 g of the test sample could be dissolved in 10-30 ml of water)

binding rate to the rat plasma protein (rat plasma protein): 90.11%
Compound: CC(C)NCC(O)COc1cccc2ccccc12 (stereo not drawn) [propranolol, reference compound]

Lighting (4500 LX) [1]: stable | High temperature (60° C.) [2]: stable | High Humidity (90%) [3]: stable
Compound: CC(C)(C)c1cc(NC(=O)Nc2ccc(-n3cnc4cc(OCCN5CCOCC5)ccc43)cc2)no1 [Compound 16 Hydrochloride, 1-(5-tert-butyl-isoxazol-3-yl)-3-{4-[5-(2-morpholin-4-yl-ethoxyl)-benzimidazol-1-yl]-phenyl}-urea]
Solubility (Solubility test; listed as 16 Hydrochloride): soluble (“soluble” means that 1 g of the test sample could be dissolved in 10-30 ml of water)

GI50 [4]: > 1000 nM | GI50 (HL-60 (FLT3 wild type)): > 1000 nM | GI50 (U937 (FLT3 wild-type)): > 1000 nM | GI50 [6]: > 1000 nM | GI50 [7]: > 1000 nM | GI50 [8]: 1 to 10 nM | GI50 [9]: 1 to 10 nM | GI50 (RS4; 11 (FLT3 wild type)): > 1000 nM
Compound: COc1cc2ncn(-c3ccc(NC(=O)n4nc(C(C)(C)C)cc4N)cc3)c2cc1OC [Compound 129, 5-amino-3-tert-butyl-pyrazol-1-carboxylic acid [4-(5,6-dimethoxyl-benzimidazol-1-yl)-phenyl]-amide]
GI50 [5]: > 1000 nM | Solubility (Solubility test; listed as 129 Free base): insoluble (“nearly insoluble or insoluble” means that 1 g of the test sample could not be completely dissolved in 10,000 ml of water) | GI50 [10]: > 1000 nM

efflux ratio at 2 h (P-gp): 322 | Papp A→B at 2 h ([11]; Caco-2, pH 7.4, Caco-2 monolayer cell model, transmembrane permeability, read-out: Papp(A→B) value (conclusions under the table)): < 1 ×10⁻⁶ cm/s | Papp B→A at 2 h ([11]; Caco-2, pH 7.4, Concentration 10, Inhibitor − (without P-gp inhibitor GF120918)): 20.4 ×10⁻⁶ cm/s | Papp A→B at 2 h ([11]; Caco-2, pH 7.4, Concentration 10, Inhibitor − (without P-gp inhibitor GF120918), read-out: Papp (A→B)): 0.06 ×10⁻⁶ cm/s
Compound: C[C@H]1O[C@@H](O[C@H]2[C@@H](O)C[C@H](O[C@H]3[C@@H](O)C[C@H](O[C@H]4CC[C@@]5(C)[C@H](CC[C@@H]6[C@@H]5C[C@@H](O)[C@]5(C)[C@@H](C7=CC(=O)OC7)CC[C@]65O)C4)O[C@@H]3C)O[C@@H]2C)C[C@H](O)[C@@H]1O [Digoxin]
